According to patent US11530244B2, “Cyclic polypeptides for PCSK9 inhibition” (priority 2018, dated 2022):
Like-named read-outs stand apart in the source and are kept apart here. Starred links: 1 amine or outer side, 2 acyl side, 3 side chain; linkers in the order of their positions; H or OH if unused. Positions of bridges follow the written chain, without caps; N, C: chain ends. Non-standard residues stand in square brackets, D forms with d. Residues, ends and D or L forms follow the SMILES beside them. X14 = CCOP(=O)(OCC)C(F)(F)c1ccc(C[C@H](N[*:1])C(=O)[*:2])cc1; Pyridine(2,6-diCH2) = c1cc(C[*:1])nc(C[*:2])c1; Trp(5-F) = N[C@@H](Cc1c[nH]c2ccc(F)cc12)C(=O)O; Phe(4-CH2NH2) = NCc1ccc(C[C@H](N)C(=O)O)cc1; Tyr(3-Cl) = N[C@@H](Cc1ccc(O)c(Cl)c1)C(=O)O; Bip = N[C@@H](Cc1ccc(-c2ccccc2)cc1)C(=O)O; Pro(cis-4-F) = O=C(O)[C@@H]1C[C@H](F)CN1; X4 = O=C(CCSCc1cccc(CSCCN[*:1])c1)[*:2]; TBMB = c1c(C[*:1])cc(C[*:3])cc1C[*:2]; mXylylene = c1cc(C[*:1])cc(C[*:2])c1; AEF = NCCOc1ccc(C[C@H](N)C(=O)O)cc1; X35 = COc1cc(C[*:1])cc(C[*:2])c1; hPhe = N[C@@H](CCc1ccccc1)C(=O)O; X8 = Clc1cc(C[*:1])cc(C[*:2])c1; NMeD = CN[C@@H](CC(=O)O)C(=O)O; aThr = C[C@H](O)[C@H](N)C(=O)O; αMeP = C[C@@]1(C(=O)O)CCCN1; Orn = NCCC[C@H](N)C(=O)O; Mpa = O=C(O)CCS

Legend:
[1] = target: human PCSK9 / human LDLR EGFa domain interaction (Homo sapiens (Human), UniProt Q8NBP7); assay: TR-FRET assay of inhibition of the PCSK9-LDLR protein-protein interaction; assay type: binding
Outline: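 Avitag-biotinylated human PCSK9 (20 nM) and his-tagged human LDLR EGFa domain (20 nM) were incubated with 5 nM Ulight streptavidin and 5 nM europium anti-6×His for 2 h at room temperature. Buffer: 50 mM HEPES, 150 mM NaCl, 5 mM CaCl2, 0.01% BSA, 0.01% P20. IC50 from 4-parameter fit of dose-response.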

PCSK9 = PCSK9 (Homo sapiens (Human), UniProt Q8NBP7); assay: PCSK9 Alexa FRET Standard assay (displacement of AlexaFluor647 tagged cyclic peptide Reagent A); assay type: binding; conditions: 0.5 nM PCSK9, 20 nM AF cyclic peptide Reagent A
Outline: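 TR-FRET displacement: 0.5 nM biotinylated PCSK9 with 1.25 nM Strep-Eu and 20 nM AlexaFluor-tagged cyclic peptide (final) in 50 mM HEPES pH 7.4, 0.15 M NaCl, 5 mM CaCl2, 0.01% BSA, 0.01% P20, ≥2 h at room temperature. IC50 from sigmoidal fit, converted to Ki via peptide KD; falling Eu counts flagged false positives.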

[2] = TR-FRET, 20 nM human PCSK9, 20 nM human LDLR EGFa domain, 2 hours room temperature, read-out: IC50
[3] = PCSK9 Alexa FRET Standard assay, read-out: IC50

human PCSK9 / human LDLR EGFa domain interaction, sequence (Q8NBP7 153-692): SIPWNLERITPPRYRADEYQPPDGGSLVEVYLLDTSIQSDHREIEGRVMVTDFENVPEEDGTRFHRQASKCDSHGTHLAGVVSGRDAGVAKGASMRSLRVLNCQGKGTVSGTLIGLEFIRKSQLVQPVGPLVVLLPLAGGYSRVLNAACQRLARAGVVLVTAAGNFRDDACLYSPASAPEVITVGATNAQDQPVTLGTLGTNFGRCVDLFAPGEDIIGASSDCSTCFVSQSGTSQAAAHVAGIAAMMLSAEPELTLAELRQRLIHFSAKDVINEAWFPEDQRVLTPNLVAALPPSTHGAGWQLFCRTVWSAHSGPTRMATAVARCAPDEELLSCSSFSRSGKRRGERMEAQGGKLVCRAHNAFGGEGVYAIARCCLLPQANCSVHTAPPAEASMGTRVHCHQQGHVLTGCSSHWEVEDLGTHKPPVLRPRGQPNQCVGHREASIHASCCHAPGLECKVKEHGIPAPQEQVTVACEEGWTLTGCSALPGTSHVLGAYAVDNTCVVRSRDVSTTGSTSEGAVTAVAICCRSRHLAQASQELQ
human PCSK9 / human LDLR EGFa domain interaction, sequence (Q8NBP7 31-152 partner): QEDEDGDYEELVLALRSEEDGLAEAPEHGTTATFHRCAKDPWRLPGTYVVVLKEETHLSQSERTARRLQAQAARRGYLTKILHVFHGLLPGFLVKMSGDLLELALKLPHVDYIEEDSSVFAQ
PCSK9, sequence (Q8NBP7 153-692): as the sequence (Q8NBP7 153-692) above

IC50 [1, 2] [µM]	IC50 (PCSK9; [3]) [µM]	Structure (SMILES)	IC50 [1] [µM]	IC50 (PCSK9; IC50, PCSK9 Alexa FRET Standard assay) [µM]
1 to 12.1	1 to 12.1	COc1ccc(C[C@@H]2NC(=O)[C@H]([C@@H](C)O)NC(=O)[C@@H]3CCCN3C(=O)[C@H](Cc3c[nH]c4ccc(F)cc34)NC(=O)[C@H](Cc3c[nH]c4ccc(F)cc34)NC(=O)[C@@H](C)NC(=O)[C@H](CCCCN)NC(=O)CCSCc3cc(C)cc(c3)CSC[C@@H](C(N)=O)NC(=O)[C@]3(C)CCCN3C2=O)cc1 [Compound 062] ([Mpa]K[dA][Trp(5-F)][Trp(5-F)]PTY(Me)[αMeP]C-NH2; linker 1-10 via TBMB)	–	–
1 to 12.1	21 to 50	COc1ccc(C[C@@H]2NC(=O)[C@H]([C@@H](C)O)NC(=O)[C@@H]3CCCN3C(=O)[C@H](Cc3c[nH]c4ccc(F)cc34)NC(=O)[C@H](Cc3c[nH]c4ccc(F)cc34)NC(=O)[C@@H](C)NC(=O)[C@H](CCCCN)NC(=O)CCSCc3cc(cc(OC)c3)CSC[C@@H](C(N)=O)NC(=O)[C@]3(C)CCCN3C2=O)cc1 [Compound 063] ([Mpa]K[dA][Trp(5-F)][Trp(5-F)]PTY(Me)[αMeP]C-NH2; linker 1-10 via X35)	–	–
1 to 12.1	1 to 12.1	COc1ccc(C[C@@H]2NC(=O)[C@H]([C@@H](C)O)NC(=O)[C@@H]3CCCN3C(=O)[C@H](Cc3c[nH]c4ccc(F)cc34)NC(=O)[C@H](Cc3c[nH]c4ccc(F)cc34)NC(=O)[C@@H](C)NC(=O)[C@H](CCCCN)NC(=O)CCSCc3cc(Cl)cc(c3)CSC[C@@H](C(N)=O)NC(=O)[C@]3(C)CCCN3C2=O)cc1 [Compound 064] ([Mpa]K[dA][Trp(5-F)][Trp(5-F)]PTY(Me)[αMeP]C-NH2; linker 1-10 via X8)	–	–
0.0001 to 0.1	0.00011 to 0.1	COc1ccc(C[C@@H]2NC(=O)[C@H]([C@H](C)O)NC(=O)[C@@H]3C[C@H](F)CN3C(=O)[C@H](Cc3c[nH]c4ccc(F)cc34)NC(=O)[C@H](Cc3c[nH]c4ccc(F)cc34)NC(=O)[C@@H](C)NC(=O)[C@H](CCCCN)NC(=O)[C@H](NC(C)=O)CCc3cn(nn3)-c3ccc(cc3)C[C@@H](C(N)=O)NC(=O)[C@]3(C)CCCN3C2=O)cc1 [Compound 068]	–	–
1 to 12.1	1 to 12.1	NCCCC[C@@H]1NC(=O)CCSCc2cccc(c2)CSC[C@@H](C(N)=O)NC(=O)[C@@H]2CCCN2C(=O)[C@H](Cc2ccc(O)cc2)NC(=O)[C@H](Cc2c[nH]cn2)NC(=O)[C@H](CC(=O)O)NC(=O)[C@H](Cc2c[nH]c3ccc(F)cc23)NC(=O)[C@H](Cc2c[nH]c3ccc(F)cc23)NC(=O)CNC1=O [Compound 149] ([Mpa]KG[Trp(5-F)][Trp(5-F)]DHYPC-NH2; linker 1-10 via mXylylene)	–	–
0.0001 to 0.1	0.1 to 1	CN1C(=O)[C@H](Cc2c[nH]c3ccc(F)cc23)NC(=O)[C@H](Cc2c[nH]c3ccc(F)cc23)NC(=O)CNC(=O)[C@H](CCCCN)NC(=O)CCSCc2cccc(c2)CSC[C@@H](C(N)=O)NC(=O)[C@@H]2CCCN2C(=O)[C@H](Cc2ccc(O)cc2)NC(=O)[C@H](Cc2cnc[nH]2)NC(=O)[C@@H]1CC(=O)O [Compound 171] ([Mpa]KG[Trp(5-F)][Trp(5-F)][NMeD]HYPC-NH2; linker 1-10 via mXylylene)	–	–
1 to 12.1	1 to 12.1	NCCCC[C@@H]1NC(=O)CCSCc2cccc(c2)CSC[C@@H](C(N)=O)NC(=O)[C@@H]2CCCN2C(=O)[C@H](Cc2ccc(O)cc2)NC(=O)[C@H](Cc2c[nH]cn2)NC(=O)[C@H](CC(=O)O)NC(=O)[C@H](Cc2c[nH]c3ccc(F)cc23)NC(=O)[C@H](Cc2ccc(-c3ccccc3)cc2)NC(=O)CNC1=O [Compound 210] ([Mpa]KG[Bip][Trp(5-F)]DHYPC-NH2; linker 1-10 via mXylylene)	–	–

The next lines start with the compound.

Structure (SMILES)	IC50 [1, 2] [µM]	IC50 (PCSK9; [3]) [µM]	IC50 [1] [µM]	IC50 (PCSK9; IC50, PCSK9 Alexa FRET Standard assay) [µM]
COc1ccc(C[C@@H]2NC(=O)[C@H]([C@@H](C)O)NC(=O)[C@@H]3CCCN3C(=O)[C@H](Cc3c[nH]c4ccc(F)cc34)NC(=O)[C@H](Cc3c[nH]c4ccc(F)cc34)NC(=O)[C@@H](C)NC(=O)[C@H](CCCCN)NC(=O)CCSCc3cccc(n3)CSC[C@@H](C(N)=O)NC(=O)[C@]3(C)CCCN3C2=O)cc1 [Compound 065] ([Mpa]K[dA][Trp(5-F)][Trp(5-F)]PTY(Me)[αMeP]C-NH2; linker 1-10 via Pyridine(2,6-diCH2))	0.0001 to 0.1	0.1 to 1	–	–
COc1ccc(C[C@@H]2NC(=O)[C@H]([C@@H](C)O)NC(=O)[C@@H]3C[C@H](F)CN3C(=O)[C@H](Cc3c[nH]c4ccc(F)cc34)NC(=O)[C@H](Cc3c[nH]c4ccc(F)cc34)NC(=O)[C@@H](C)NC(=O)[C@H](CCCCN)NC(=O)[C@@H](NC(C)=O)CC(=O)NCc3ccc(cc3)C[C@@H](C(N)=O)NC(=O)[C@]3(C)CCCN3C2=O)cc1 [Compound 066] (Ac-DK[dA][Trp(5-F)][Trp(5-F)][Pro(cis-4-F)]TY(Me)[αMeP][Phe(4-CH2NH2)]-NH2; lactam 1-10)	0.0001 to 0.1	0.00011 to 0.1	–	–
COc1ccc(C[C@@H]2NC(=O)[C@H]([C@@H](C)O)NC(=O)[C@@H]3C[C@H](F)CN3C(=O)[C@H](Cc3c[nH]c4ccc(F)cc34)NC(=O)[C@H](Cc3c[nH]c4ccc(F)cc34)NC(=O)[C@@H](C)NC(=O)[C@H](CCCCN)NC(=O)[C@@H](NC(C)=O)CC(=O)NCCOc3ccc(cc3)C[C@@H](C(N)=O)NC(=O)[C@]3(C)CCCN3C2=O)cc1 [Compound 067] (Ac-DK[dA][Trp(5-F)][Trp(5-F)][Pro(cis-4-F)]TY(Me)[αMeP][AEF]-NH2; lactam 1-10)	0.0001 to 0.1	0.1 to 1	–	–
COc1ccc(C[C@@H]2NC(=O)[C@H]([C@H](C)OC)NC(=O)[C@@H]3C[C@H](F)CN3C(=O)[C@H](Cc3c[nH]c4ccc(F)cc34)NC(=O)[C@H](Cc3c[nH]c4ccc(F)cc34)NC(=O)[C@@H](C)NC(=O)[C@H](CCCCN)NC(=O)CCSCc3cccc(c3)CSC[C@@H](C(N)=O)NC(=O)[C@]3(C)CCCN3C2=O)cc1 [Compound 072] ([Mpa]K[dA][Trp(5-F)][Trp(5-F)][Pro(cis-4-F)][aThr](Me)Y(Me)[αMeP]C-NH2; linker 1-10 via mXylylene)	0.1 to 1	1 to 12.1	–	–
CCOP(=O)(OCC)C(F)(F)c1ccc(C[C@@H]2NC(=O)[C@H]([C@@H](C)O)NC(=O)[C@@H]3CCCN3C(=O)[C@H](Cc3c[nH]c4ccc(F)cc34)NC(=O)[C@H](Cc3c[nH]c4ccc(F)cc34)NC(=O)[C@@H](C)NC(=O)[C@H](CCCCN)NC(=O)CCSCc3cccc(c3)CSCCNC(=O)[C@]3(C)CCCN3C2=O)cc1 [Compound 131] (cyclo(K[dA][Trp(5-F)][Trp(5-F)]PT[X14][αMeP][X4]))	–	–	0.1 to 1	1 to 12.1
COc1ccc(C[C@@H]2NC(=O)[C@H]([C@@H](C)O)NC(=O)[C@@H]3C[C@H](F)CN3C(=O)[C@H](Cc3c[nH]c4ccc(F)cc34)NC(=O)[C@H](Cc3c[nH]c4ccc(F)cc34)NC(=O)[C@@H](C)NC(=O)[C@H](CCCCN)NC(=O)CCC/C=C\Cc3ccc(cc3)C[C@@H](C(N)=O)NC(=O)[C@]3(C)CCCN3C2=O)cc1 [Compound 132]	21 to 50	21 to 50	–	–
CCCCCCCCCCCCCCCC(=O)N[C@@H](CCC(=O)NCCOCCOCC(=O)NCCOCCOCC(=O)NCCCC[C@H](NC(=O)CCOCCOCCOCCOCCOCCOCCOCCOCCNC(=O)CCOCCOCCOCCOCCOCCOCCOCCOCCOCCOCCOCCOCCNC(=O)[C@@H]1CSCc2cccc(c2)CSCCC(=O)N[C@@H](C)C(=O)N[C@H](C)C(=O)N[C@@H](Cc2c[nH]c3ccc(F)cc23)C(=O)N[C@@H](Cc2c[nH]c3ccc(F)cc23)C(=O)[C@@H]2C[C@H](F)CN2C(=O)N[C@@H]([C@@H](C)O)C(=O)N[C@@H](Cc2ccc(O)cc2)C(=O)N2CCC[C@@]2(C)C(=O)N1)C(N)=O)C(=O)O [Compound 133]	1 to 12.1	1 to 12.1	–	–
C[C@@H](O)[C@@H]1NC(=O)[C@H](Cc2c[nH]c3ccc(F)cc23)NC(=O)[C@H](Cc2c[nH]c3ccc(F)cc23)NC(=O)CNC(=O)[C@H](CCCCN)NC(=O)CCSCc2cccc(c2)CSC[C@@H](C(N)=O)NC(=O)[C@@H]2CCCN2C(=O)[C@H](Cc2ccc(O)cc2)NC(=O)[C@H](Cc2c[nH]cn2)NC1=O [Compound 224] ([Mpa]KG[Trp(5-F)][Trp(5-F)]THYPC-NH2; linker 1-10 via mXylylene)	0.1 to 1	0.1 to 1	–	–
NCCCC[C@@H]1NC(=O)CCSCc2cccc(c2)CSC[C@@H](C(N)=O)NC(=O)[C@@H]2CCCN2C(=O)[C@H](Cc2ccc(O)cc2)NC(=O)[C@H](Cc2c[nH]cn2)NC(=O)[C@H](CC(=O)O)NC(=O)[C@H](CCc2ccccc2)NC(=O)[C@H](Cc2c[nH]c3ccc(F)cc23)NC(=O)CNC1=O [Compound 244] ([Mpa]KG[Trp(5-F)][hPhe]DHYPC-NH2; linker 1-10 via mXylylene)	0.1 to 1	0.1 to 1	–	–
C[C@H]1NC(=O)[C@H](CCCCN)NC(=O)CCSCc2cccc(c2)CSCCNC(=O)[C@]2(C)CCCN2C(=O)[C@H](Cc2ccc(O)c(Cl)c2)NC(=O)[C@H](Cc2cnc[nH]2)NC(=O)[C@H](CC(=O)O)NC(=O)[C@H](Cc2c[nH]c3ccc(F)cc23)NC(=O)[C@H](Cc2c[nH]c3ccc(F)cc23)NC1=O [Compound 246] (cyclo(DH[Tyr(3-Cl)][αMeP][X4]K[dA][Trp(5-F)][Trp(5-F)]))	0.1 to 1	1 to 12.1	–	–
C[C@@]12CCCN1C(=O)[C@H](Cc1ccc(O)cc1)NC(=O)[C@H](Cc1cnc[nH]1)NC(=O)[C@H](CC(=O)O)NC(=O)[C@H](Cc1c[nH]c3ccc(F)cc13)NC(=O)[C@H](Cc1c[nH]c3ccc(F)cc13)NC(=O)CNC(=O)[C@H](CCCN)NC(=O)CCSCc1cccc(c1)CSC[C@@H](C(N)=O)NC2=O [Compound 248] ([Mpa][Orn]G[Trp(5-F)][Trp(5-F)]DHY[αMeP]C-NH2; linker 1-10 via mXylylene)	0.0001 to 0.1	0.1 to 1	–	–
